Read-outs that look alike come from different tables or passages of the source.
What was measured:
[1] = system: KKAy mouse; conditions: oral dose of 900 mg/kg/day; cited from earlier work
[2] = system: diabetic patients; conditions: cited from earlier work
[3] = system: rat; conditions: oral administration; cited from earlier work
[4] = system: C57BL/KsJ db/db mice; assay: Consumption of water and food by db/db mice; conditions: male db/db mice, control = 100
From the text: The C57BL/KsJ db/db mice used in the experiments reported here below were supplied by Jackson Lab (via Ch. River).

[5] = system: ob/ob mouse; assay: Reduction in hyperglycaemia in the ob/ob mouse (laboratory experiments); conditions: oral dose of 600 mg/kg/day
[6] = system: C57BL/KsJ db/db mice; assay: Serum glucose levels in db/db mice after 4 days of subcutaneous treatment; conditions: male db/db mice, postabsorption conditions, 8 hours after last treatment, control = 100
[7] = 100 mg/kg s.c. twice daily for 4 days
[8] = 25 mg/kg s.c. twice daily for 4 days

SMILES | reduction in hyperglycaemia [1] | reduction of hyperglycaemia ([2]; in combination with sulphonylureas) | reduction of hyperglycaemia ([2]; monotherapy after the failure of diet and physical exercise) | LD50 [3] | Food % (consumption, variation vs Control) [4, 7] | Water % (consumption, variation vs Control) [4, 7] | reduction in hyperglycaemia [5] | Glucose % (variation vs Control) [6, 7] | Food % (consumption, variation vs Control) [4, 8] | Water % (consumption, variation vs Control) [4, 8] | Glucose % (variation vs Control) [6, 8]
CN(C)C(=N)N=C(N)N [Metformin] | 50% | 25% | 20-30% | 1000 mg/kg | 119% | 113% | 22% | 104% |  |  | 
CC(C)=CCNC(=N)NCCCCN.CS(=O)(=O)O [ST2369, N-(4-aminobutyl)-N′-(γ,γ-dimethylallyl)guanidine methane sulphonate] |  |  |  |  |  |  |  |  | 63% | 47% | 
CC(C)=CCNC(=N)NCCCCCCN.CS(=O)(=O)O [ST2370, N-(γ,γ-dimethylallyl)-N′-(6-aminohexyl)guanidine methane sulphonate] |  |  |  |  |  |  |  |  | 81% | 47% | 69 □ %

— US7368605B2, “Variously substituted derivatives of guanidine, and their use as medicines with anti-diabetes and/or anti-obesity activity” (Sigma-Tau Industrie Farmaceutiche Riunite S.p.A., priority 2002, dated 2008)
